Reference: patent US6765129B1, “Overexpression of a DNA sequence coding for a 1-desoxy-d-xylulose-5-phosphate reductoisomerase in plants” (BASF Aktiengesellschaft, priority 1999, dated 2004)

Columns and labels:
mevalonate formation = details: cited from earlier work
[1] = test system: Arabidopsis thaliana DXPRI; experiment: DXPRI enzyme test (heterologously expressed in E. coli, TLC/autoradiography of 14C product); type: biochemical
Method: The transgenic strain was incubated in the growth medium “2×YT” (per 1 l: Bacto-tryptone 16 g, yeast extract 10 g, NaCl 5 g). The cells were grown at 37° C. to an OD560 nm of 0.6. After IPTG (1 MM) had been added, they were cultured for a further 10 minutes at 37° C. and then for a further 4 hours at 22° until they were harvested. The cells were centrifuged off and washed in 1% NaCl. After the cells had been disrupted (50 to 500 ml of cell culture (OD560 nm of 1.0) by means of a French press, a crude protein extract was used for enzyme tests (in 4 ml of extraction buffer (Tris/HCl (pH 7.5) 100 mM, MgCl2 5 mM, DTT 2 mM, PMSF 0.1 mM). For storage, the crude extracts together with 20% of glycerol were frozen at −20° C.
For the enzyme test, 15 μl (diluted to 1 to 7 mg of protein/ml) of protein extract were incubated for 30 minutes at 30° C. with MnCl2 (1 mM), NaF (5 mM), NADPH2 (0.5 mM) and ^14C-1-deoxy-D-xylulose-5-phosphate (0.25 mM, 3 kBq). The reaction was stopped at 100° C. (30 seconds) by adding CaCl2 (to 100 mM) and alkaline phosphatase (0.5 units). The product was dephosphorylated for 2 hours at 30° C. Detection was carried out by subjecting the product to separation by thin-layer chromatography on silica gel 60 (Merck) with acetone/ethyl acetate/water (50+50+2) with subsequent evaluation by Instant Imager. […]

barley seedlings = experiment: plant assay: pigment neogenesis in etiolated barley seedlings; type: in vivo; details: barley seedlings subjected to fosmidomycin treatment, FIG. 8
Source text: Since this biosynthetic pathway is a metabolic pathway which is exclusively located in the chloroplasts, it offers optimal target enzymes for the development of inhibitors. Since, according to current knowledge, no enzyme which is identical with, or similar to, Arabidopsis thaliana DXPRI is present in other higher organisms, it can be assumed that inhibitors should have a very specific action on plants. The site of action of an inhibitor, namely fosmidomycin (3-(N-formyl-N-hydroxyamino)propylphosphonic acid; Fujisawa Pharmaceutical Co.) was identified as being a DXPRI. […] The following abbreviations were used in FIG. 7: DOX=1-deoxy-D-xylulose, ME=methylerythritol. The same action is found in a plant assay in which barley seedlings are subjected to fosmidomycin treatment and then examined for their chlorophyll and carotenoid content.
FIG. 8. Effect of fosmidomycin on pigment neogenesis in etiolated barley seedlings.

Row | Molecule | sterol biosynthesis in the cytoplasma (mevalonate formation; cytoplasma) | prenyl lipid formation in the plastids (mevalonate formation; plastids) | inhibition of the enzymatic activity of DXPRI ([1]; biochemical assay, FIG. 7) | formation of ME (methylerythritol) ([1]; fosmidomycin at various concentrations, crude protein extract, 14C-1-deoxy-D-xylulose-5-phosphate substrate) | carotenoid content (barley seedlings) | chlorophyll content (barley seedlings)
1 | mevinolin | inhibition | remains unaffected |  |  |  | 
2 | O=CN(O)CCCP(=O)(O)O [fosmidomycin, 3-(N-formyl-N-hydroxyamino)propylphosphonic acid] |  |  | efficient inhibition | inhibited efficiently | greatly reduced | greatly reduced
